The source of these data is patent publication US20210002712A1, “PHOSPHATIDIC ACID SENSOR” (NATIONAL UNIVERSITY CORPORATION CHIBA UNIVERSITY, priority 2019, published 2021).

A short description of the experiment: Liposome cosedimentation assay, 18:1/18:1-PA liposomes. It counts as binding. The conditions noted are these: 6×His-SUMO-tagged protein 2.5 μM; PA 150 μM. The protocol:
FIG. 1. A schematic architecture of α-Syn and its deletion mutants. FIG. 2. The purified SUMO-tagged-α-Syn and its deletion mutant protein (2.5 μM) were incubated with 18:1/18:1-PA or 18:1/18:1-PS liposomes (PA or […]: 150 μM) and then separated by ultracentrifugation. SDS-PAGE (15%) was performed and separated proteins were stained with Coomassie Brilliant Blue. The positions of α-Syn and its mutants are indicated with arrow heads. The amounts of protein in the supernatant (S) and precipitant (P) were quantified by densitometry using ImageJ software. Binding activity was calculated as the percentage of the precipitate band intensity compared to the total band intensities. Values are presented as the mean±S.D. of four independent experiments. **P<0.01 versus the 18:1/18:1-PS liposome.
FIG. 3. The purified SUMO-tagged-α-Syn-N protein (2.5 μM) was incubated with control (PC and Chol alone), 16:0/16:0-PA, 16:0/18:1-PA, 18:1/18:1-PA, or 18:0/18:0-PA liposomes (PA: 150 μM) and then separated by ultracentrifugation. SDS-PAGE (15%) was performed and separated proteins were stained with Coomassie Brilliant Blue. The position of α-Syn-N is indicated with an arrow head.
FIG. 4. The amounts of protein in the supernatant (S) and precipitant (P) were quantified by densitometry using ImageJ software. Binding activity was calculated as the percentage of the precipitate band intensity compared to the total band intensities. Values are presented as the mean±S.D. of three independent experiments. #P<0.05, ##P<0.01, ###P<0.005 versus the 18:1/18:1-PA-liposome, *P<0.05, ***P<0.005 versus the control liposome.
FIG. 5. The purified SUMO-tagged-α-Syn protein (0.1 μM) was incubated with 18:1/18:1-PA liposomes of the indicated concentrations (0-20 μM) and then separated by ultracentrifugation. SDS-PAGE (15%) was performed and separated proteins were detected with silver staining. The position of α-Syn-N is indicated with an arrow head.
FIG. 6. The amounts of protein in the precipitant were quantified by densitometry using ImageJ software. Binding activity was calculated as the percentage of the precipitate band intensity compared to the total band intensities (Input). Values are presented as the mean±S.D. of four independent experiments. The Kd was determined using GraphPad Prism 8 (Dissociation-One phase exponential decay).
FIG. 7. The purified SUMO-tagged-α-Syn protein (0.1 μM) was incubated with 18:1/18:1-PA, 18:1/18:1-PS, 18:1/18:1-PI(4,5)P2, 18:1/18:1-PE and d18:1/18:1-C1P liposomes (20 μM) and then separated by ultracentrifugation. SDS-PAGE (15%) analysis was performed and separated proteins were detected with silver staining. The position of α-Syn-N is indicated with an arrow head.
FIG. 8. The amounts of protein in the precipitant were quantified by densitometry using ImageJ software. The PA binding activity of α-Syn-N was set to 100%. Values are presented as the mean±S.D. of three independent experiments. ***P<0.005 versus 18:1/18:1-PA liposome.
The following lipid mixtures were used: the control liposome: Chol (50 mol %) and 16:0/18:1-PC (50 mol %); and the PA liposome: Chol (50 mol %), 16:0/18:1-PC (35 mol %) and each PA species (15 mol %). The combined dried lipid mixture was resuspended in HEPES buffer. Then, the lipid mixture was vortexed for 1 min. Liposome formation was induced by sonication at 75° C. The purified SUMO-tagged α-Syn and its deletion mutants (2.5 μM) were dissolved in HEPES buffer and incubated with the control or PA-containing liposomes at room temperature for 1 h. Then, the samples were centrifuged at 200,000 g at 4° C. for 1 h. The precipitant was dissolved in HEPES buffer. The supernatant and pellet were analyzed by SDS-PAGE followed by Coomassie Brilliant Blue and silver staining. Quantitative densitometry was performed using ImageJ software. Since the lipid forms a bilayer, half of the actual concentration was considered.

Take “α-Syn-NAC-C: NAC and C deletion mutant of α-Syn (Glu61-Ala140), 6×His-SUMO-tagged”: the “PA-binding activity (18:1/18:1-PA liposomes)” value (shortened to “PA-binding activity”) was “failed to show substantial PA-binding activity”.

For the substance “α-Syn-C: C-terminal region deletion mutant of α-Syn (Lys96-Ala140), 6×His-SUMO-tagged”, the “PA-binding activity” value is given as “failed to show substantial PA-binding activity”.

As to “α-Syn-NAC: non-amyloid-β-component deletion mutant of α-Syn (Glu61-Val95), 6×His-SUMO-tagged”, the “PA-binding activity” value was “failed to show substantial PA-binding activity”.
